Data: patent US12269859B2, “Synthetic immune receptors and methods of use thereof” (Angeles Therapeutics, Inc., priority 2016, dated 2025)
Entries after “also recorded” stand apart in the source; their conditions may differ.

Key:
RAJI cells = assay: GLuc cytotoxicity assay, RAJI-GLuc cells; format: cell-based, human
Experimental: (D) Assay for Cytotoxic Activity in vitro and in vivo: The uninfected T cells or those expressing a control vector or SIR are cocultured with the target cell lines expressing a non-secretory form of a luciferase (such as GLuc, NLuc, Turboluc 16 etc.) for 4-96 hours and induction of cell lysis examined by measuring the luciferase activity as described in PCT/US17/52344. Alternate methods for measurement of cytotoxic activity (e.g., ^51Cr release assay or LDH release assay) can be used as well. The activity of T cells expressing a SIR can be also assayed in vivo using appropriate xenograft models in immunodeficient mice.
Cell death assay. To measure cell death, a novel assay based on ectopic cytosolic expression of Gluc or NLuc was utilized as described in PCT/US17/52344 “A Non-Radioactive Cytotoxicity Assay”. The method involves expression of a reporter in a target cells in a manner so that it is preferentially retained within the healthy cells but is either released from dead and dying cells or whose activity can be preferentially measured in dead and dying cells. The preferred reporter for this assay are 1) non-secreted forms of luciferases from the copepods, such as Gaussia princeps, Pleuromamma abdominalis, Metridia pacifica, Metridia curticauda, Metridia asymmetrica, Metridia okhotensis, Metridia longa, Lucicutia ovaliformis, Heterorhabdus tanneri, and Pleuromamma scutullata 2) engineered luciferase reporters from deep sea shrimp, such as NanoLuc. The sequence of several such reporter vectors is provided in SEQ ID NO: 881 to SEQ ID NO: 887. The above vectors were used to generate retrovirus and lentiviruses which in turn were used to generate polyclonal population of several target cell lines stably expressing GLuc, NLuc, TurboLuc or MLuc7 following selection with appropriate antibiotics. Unless indicated otherwise, the target cells stably expressing the different luciferases (GLuc, Nluc, MLuc7 or TurboLuc16) were plated in triplicate in a 384 well plate in the media used for growing the target cells. Target cells which grow in suspension were generally plated at a concentration of 2-3×10^4 per well, while target cells which grow as adherent monolayers were plated at a concentration of 1-2×10^4 per well. Unless indicated otherwise, the target cells were cocultured with the genetically modified T cells (i.e. those expressing SIR or CAR) at an Effector:Target (E:T) ratio varying from 1:1 to 10:1 for 4 hours to 96 hours. In the case target cells grow as adherent cells (e.g., HeLa cells), they were allowed to attach to the bottom of the wells overnight before the T cells were added. T cells mediated induction of lysis of target cells was assayed by increase of luciferase activity as measured by BioTek synergy plate reader by directly injecting 0.5×CTZ assay buffer containing native coeloentrazine (Nanaolight).
CTZ assay. A 100× stock solution of native coelenterazine (CTZ; Nanolight, cat #303) was made by dissolving 1 mg of lyophilized CT powder in 1.1 ml of 100% Methanol supplemented with 30 μl of 6N HCl to avoid oxidation of CTZ with time. To make CTZ assay buffer, the 100× stock solution of CTZ was diluted to 0.5× concentration in PBS. Unless indicated otherwise, a total volume of 15 μl of the CTZ assay buffer (as prepared above) was added to each well of a 384-well white plate (Greiner, 384 well white plate cat #781075) containing cells expressing the non-secretory form of the luciferase in approximately 50-60 μl volume of medium and plates were read for luminescence in endpoint mode using BioTek synergyH4 plate reader. For 96 well plates, cells were plated in 200 μl of media and approximately 50 μl of 0.5×CTZ assay buffer was added. Unless indicated otherwise, the 0.5×CTZ assay buffer was used for assaying the activity of GLuc, TurboLuc16, and MLuc7. The CTZ assay buffer (diluted to 0.125× concentration) was also used for measurement of NLuc activity in some experiments (see below).

[1] = tested on: target antigen-expressing cell line; assay: Jurkat NFAT-GFP assay, coculture with target cell lines expressing the respective target antigen (summary Table 10A); format: cell-based, human; set-up: key: The signs +/−, +, 2+ etc. after the name of the cell lines indicate the relative degree of positivity on the Jurkat-NFAT-GFP assay as measured by the % GFP positive cells; +: relative degree of positivity on the Jurkat-NFAT-GFP assay as measured by the % GFP positive cells; 2+: relative degree of positivity on the Jurkat-NFAT-GFP assay as measured by the % GFP positive cells; settings: relative % GFP positive cells; for NFAT-GFP ASSAY Positive Cell lines: RAJI: SIR-expressing Jurkat-NFAT-GFP cells cocultured with RAJI; for NFAT-GFP ASSAY Positive Cell lines: NALM6: SIR-expressing Jurkat-NFAT-GFP cells cocultured with NALM6
Experimental: (B) Induction of NFAT promoter driven GFP expression. The control vector- and SIR-expressing Jurkat-NFAT-GFP cocultured for 4-24 hours with the target antigen-expressing cell line (described above) and their ability to bind to the target antigen is assayed by measuring induction of GFP expression using Flow Cytometry. Cellular supernatant is collected and assayed for the induction of cytokines (e.g., IL2).
Jurkat NFAT-GFP Assay For Synthetic Immune Receptors. The Jurkat-NFAT-GFP cells are engineered in such a way that the IL-2 promoter, which carries NFAT binding sites, is cloned upstream of the GFP gene. These cells have been used to study signaling via TCR and CAR. The different SIRs were stably expressed in Jurkat NFAT-GFP cells by lentiviral mediated gene transfer, followed by selection with puromycin. The SIR-expressing Jurkat-NFAT-GFP cells were cocultured with the target cells at E:T ratio of approximately 1:2 for approximately 4 hours to 18 hours. When the interaction between SIRs and their target antigen results in activation of the NFAT pathway, GFP expression is induced.
Induction of GFP expression by coculturing of Jurkat-NFAT-GFP cells expressing different SIR constructs and the different target cells was studied essentially as described previously (Wu, Roybal, Puchner, Onuffer, & Lim, 2015). GFP expression was monitored by FACS analysis. A few representative examples of this assay are shown in the FIG. 13A-B. In panel A, control Jurkat-NFAT-GFP cells or those expressing SIRs targeting CD19 (clone ID 051716-I08), MPL (Clone ID: 040716-A07) and BCMA (Clone ID: 011116-A07) were incubated with RAJI (top), HEL (middle) or U266 (bottom) cells, respectively. […] In panel B, Jurkat cells expressing SIR targeting CDH6 (Clone ID: 051716-J05), CD276 (Clone ID: 050516-Q06) and Her2/neu (Clone ID: 050516-I03) were incubated with SKOV3 (top) and […] (middle and bottom) cells, respectively. […] The Jurkat-NFAT-GFP cells were engineered to express different SIRs targeting other antigens and the experiment repeated upon coculture with the target cells expressing their respective target antigen. The Jurkat-NFAT-GFP (parental) cells were used as control. The names of different SIRs, their SEQ ID NOs, component antigen binding domains and TCR chains can be determined by reference to Tables 7A-7H. A SIR is considered positive in the assay in case the SIR expressing Jurkat-NFAT-GFP cells show greater % GFP positive cells when cultured with the target cell line as compared to parental Jurkat-NFAT-GFP cells. […] The signs +/−, +, 2+ etc. after the name of the cell lines indicate the relative degree of positivity on the Jurkat-NFAT-GFP assay as measured by the % GFP positive cells after culture of the SIR expressing Jurkat-NFAT-GFP cells with that cell line. […] In addition, great diversity of response against the same target cell line is observed with Jurkat cells expressing SIRs containing different antigen binding domains targeting the same antigen (e.g., SIRs having antigen binding domains derived form different CD19 antibodies) even when the SIRs share the same TCR chains and linkers. Finally, Jurkat cells expressing SIRs targeting different antigens (e.g. CD19 vs CD20) show a diversitiy of response when exposed to the same target cell line. Thus, a diverse immune response can be generated against a single target cell by combining SIRs with different TCR chains, linkers, antigen binding domains and target specificity. Table 10A also summarizes the results of GLuc based T cell cytotoxicity assay observed with different SIRs when exposed to their target cell lines. […]

| Compound | lysis of target cells by increase of GLuc activity (in words) (RAJI cells; E:T 10:1, 4 hours) | NFAT-GFP ASSAY Positive Cell lines: RAJI [1] | also measured |
| --- | --- | --- | --- |
| C[C@@H]1CC[C@@]2(OC1)O[C@H]1[C@@H](O)[C@H]3[C@@H]4CC[C@H]5C[C@@H](O[C@@H]6O[C@H](CO)[C@H](O[C@@H]7O[C@H](CO)[C@@H](O)[C@H](O[C@@H]8OC[C@@H](O)[C@H](O)[C@H]8O)[C@H]7O[C@@H]7O[C@H](CO)[C@H](O)[C@H](O[C@@H]8O[C@H](CO)[C@@H](O)[C@H](O)[C@H]8O)[C@H]7O)[C@H](O)[C@H]6O)[C@H](O)C[C@]5(C)[C@H]4CC[C@]3(C)[C@H]1[C@@H]2C [digitonin, Digitonin, reference compound] | – | – | mean Gluc values (RAJI cells; E:T 10:1, 4 hours): 3869 |
| CD8SP-CD19Bu12-vL-Gly-Ser-Linker-CD19Bu12-vH-V5-[hTCRb-WT]-F-P2A-PAC [SEQ ID NO:1022] | failed to induce lysis of RAJI cells | RAJI (+) | – |
| CD8SP-CD20-2F2-vL-[canine-TCRb-opt]-F-P2A-CD20-2F2-vH-[canine-TCRa-opt]-F-F2A-PAC [SEQ ID NO:1113] | effective induction of target cell lysis | RAJI (+/−) | – |
| CD8SP-FMC63-scFv-V5-[TCRb-S57C-opt1]-F-P2A-SP-FMC63-scFv-MYC-[TCRa-T48C-opt1]-T2A-Pac [SEQ ID NO:910] | – | RAJI (+/−) | – |
| CD8SP-FMC63-vL-G4Sx2-[hTCRa-S61R-opt]-F-F2A-FMC63-vH-G4Sx2-[hTCRb-R79G-opt]-F-P2A-PAC [SEQ ID NO:955] | – | RAJI (+/−) | – |
| CD8SP-FMC63-vL-Gly-Ser-Linker-FMC63-vH-Myc-[preTCRa-Del48]-F-F2A-PAC [SEQ ID NO:914] | – | RAJI (+) | – |
| CD8SP-FMC63-vL-Gly-Ser-Linker-FMC63-vH-V5-[hTCRb-S57C-opt]-F-P2A-PAC [SEQ ID NO:912] | failed to induce lysis of RAJI cells | RAJI (+/−) | – |
| CD8SP-FMC63-vL-Gly-Ser-Linker-FMC63-vH-V5-[hTCRb-S57C-opt]-F-P2A-SP-Myc-[hTCRa-T48C-opt]-F-F2A-PAC [SEQ ID NO:991] | – | +/− | NFAT-GFP ASSAY Positive Cell lines: NALM6 [1]: + |
| CD8SP-FMC63-vL-Gly-Ser-Linker-FMC63-vH-V5-[hTCRb-WT]-F-P2A-PAC [SEQ ID NO:911] | – | RAJI (+) | – |
| CD8SP-FMC63-vL-Myc2-[hTCRb-R79G-opt]-F-P2A-SP-FMC63-vH-Myc4-[hTCRa-S61R-opt]-F-F2A-PAC [SEQ ID NO:937] | – | RAJI (+/−) | – |
| CD8SP-FMC63-vL-Myc-[hTCRa-T48C-opt1]-F-F2A-FMC63-VH-V5-[hTCRb-C57C-opt1]-F-P2A-PAC [SEQ ID NO:902] | can induce effective lysis of the target cells | – | – |
| CD8SP-FMC63-vL-Streptag-[hTCRb-R79G]-F-P2A-SP-FMC63-vH-Myc4-[hTCRa-S61R]-F-F2A-PAC [SEQ ID NO:938] | – | RAJI (+/−) | – |
| CD8SP-FMC63-vL-V5-[hTCRb-S57C-opt]-F-P2A-SP-FMC63-vH-Myc-[hTCRa-T48C-opt]-F-F2A-PAC [SEQ ID NO:951] | induced effective target cell lysis; also recorded: Modest cytotoxicity | – | – |
| CD8SP-FMC63-vL-V5-[hTCRb-WT]-F-P2A-SP-FMC63-vH-Myc-[hTCRa-WT]-F-F2A-PAC [SEQ ID NO:922] | fails to cause significant target cell lysis | RAJI (2+) | lysis of target cells by increase of GLuc activity (in words) (RAJI cells; E:T 1:1, 96 hours): fails to cause significant target cell lysis |
| CD8SP-FMC63-vL-V5-[mTCRb-opt]-F-P2A-SP-FMC63-vH-Myc-[mTCRa-opt]-F-F2A-PAC [SEQ ID NO:953] | increase in GLuc activity | – | lysis of target cells by increase of GLuc activity (in words) (RAJI cells; E:T 1:1, 96 hours): increase in GLuc activity |
| IgHSP-FMC63-vH-[hTCRb-C57C-opt]-F-P2A-CD8SP-FMC63-VL-MYC-[hTCRa-T48C-opt]-F-F2A-Pac [SEQ ID NO:901] | can also induce effective lysis of the target cells | RAJI(2+), NALM6(2+) | NFAT-GFP ASSAY Positive Cell lines: NALM6 [1]: RAJI(2+), NALM6(2+) |
